Literature values in patent publication US20160074380A1, “Treatment Of Neurodegenerative Diseases With Combination Of Laquinimod And Fingolimod” (TEVA PHARMACEUTICAL INDUSTRIES LTD., priority 2014, published 2016).

Tested on: mouse-cultured cortical cells
Settings: pretreatment; Di Menna, 2013; cited from earlier work

SMILES: CCCCCCCCCCCCC/C=C/[C@@H](O)[C@@H](N)COP(=O)(O)O [S1P, sphingosine 1-phosphate]
- protection of neurons against NMDA toxicity: protected neurons against NMDA toxicity

SMILES: CCCCCCCCc1ccc(CC[C@](N)(CO)COP(=O)(O)O)cc1 [FTY 720-P, fingolimod-phosphate]
- protection of neurons against NMDA toxicity: protected neurons against NMDA toxicity
